Laboratory results published in patent publication US10894412B2, “Ink jet recording apparatus” (Seiko Epson Corporation, priority 2018, dated 2021).

Experiments:
[1] = Solubility of organic compound in the ink; assay type: physicochemical; settings: in the ink of Comparative Example 4
Excerpt: Incidentally, values in the table are in mass percent. Pigment, dye, and dispersion resin in the table each show the amount of solid matter.

[2] = Octanol/water distribution coefficient (log P value, OECD Test Guideline 107); assay type: physicochemical
Excerpt: The octanol/water distribution coefficient is a value referred to as a log P value and refers to a value defined in OECD Test Guideline 107. As the log P value is larger, the hydrophobicity is higher. As the log P value is smaller, the hydrophilicity is higher.

- solubility [1]: poor
- octanol/water distribution coefficient [2]: 2.25
SMILES: COC(=O)c1ccc(C(=O)OC)cc1 [dimethyl terephthalate]
